Test results published in patent publication US4483989A, “Synthesis of pyrido[4,3-b]carbazole derivatives” (priority 1973, dated 1984).
Entries after “also recorded” stand apart in the source; their conditions may differ. Where two headings read alike, the source gives them in different places.

Assays:
Hodgkin's disease = conditions: in vivo; cited from earlier work
[1] = test system: acute myeloblastic leukemia; conditions: in vivo; cited from earlier work
[2] = cited from earlier work
BP 8 tumors = conditions: mouse, in vivo; cited from earlier work
[3] = test system: acute lymphoblastic leukemia; conditions: in vivo; cited from earlier work
mouse L 1210 leukemia [4] = conditions: in vivo; cited from earlier work
[5] = Autoradiography with 14C-labeled molecules (biodisponibility); assay type: in vivo
Description: To understand the increase of the antitumor efficiency of the quaternarized compounds, several parameters of action of 9--OH--E and its methyl derivative have been comparatively established (see table III). Both compounds have about the same affinity for DNA. On a weight basis, the methyl compound is about 10 times more toxic in mice but also 10 times more efficient on leukemic mice (ILS). […] Therefore, there is no quantitative parallel between the in vivo and in vitro action of these drugs. The N-quaternization markedly changes the biodisponibility of the drugs as shown by autoradiography with ^14 C-labeled molecules. […] Several ellipticine derivatives are mutagenic on Ames Salmonella test; however, the quaternized derivatives lose this property. The microsomes, which are able to metabolize some ellipticines, increase the mutagenic ability of these drugs in vitro. […] Due to the curved shape of their molecules, their relative hydrophobicity, and the presence of a heterocyclic nitrogen, the ellipticines are good substrates for the cytochrome P450 system, provided that the 2-N remains uncharged.

[6] = test system: advanced breast, thyroid, or colon cancers; test: Phase I trial, weekly intravenous dose, refractory patients; assay type: in vivo, human
Protocol: A phase I trial was done at the Cancer Institute of 14-Caen, France. A weekly dose in the range of 50 to 100 mg per m2 was given intravenously over a 30 minutes period to patients refractory to usual chemotherapeutic or radiotherapeutic treatments (3). […] They were suffering from advanced breast, thyroid, or colon cancers, with bone or lung metastasis in mostcases.

[7] = mouse, in vivo
[8] = Description: (§1) The mice were randomized in each experimental series. A first routine experiment enable the death rate by toxicity to be determined and thus established the sublethal doses.
(§2) To evaluate the therapeutic activity of the compounds of the invention, doses of said compound were expressed basing them on the 30 days sublethal dose which was fixed at 1.

mouse L 1210 leukemia [9] = test: L1210 leukemia in mice: inoculum of 10^5 cells, single dose of compound 24 hours later; assay type: in vivo
Description: The experimental tumor mouse L 1210 leukemia is commonly used to evaluate the effects of all the antitumor compounds now used in human therapeutics,as was described, for example, by C. C. ZUBROD in Proc. Nat. Acad. Sci. USA 69, 1972, pp. 1042-1047. This experimentally formed tumoral system permits very accurate quantitative evaluation of the activity of the compound tested and also, consequently, an objective comparison of the respective activities of various compounds, for example, according to the methods described by H. E. SKIPPER, F. M. SCHABEL Jr. and W. S. WILCOX in Cancer Chemiother. Rep. 1964, pp. 1-111 and 45, 1965, pp. 5-28.
as §1
According to the convention in force in this field, the animals which survived longer than 45 days after inoculation of tumoral cells were considered to be cured.
as §2
A--A tumoral inoculum of 10^5 L1210 leukemia cells was administered by the intraperitoneal way to twenty 2 to 3 months old DBA/2 strain female mice. 24 hours later, half of said mice received a single intraperitoneal injection of a variable dose of the compound to be tested and the same volume of solvent was administered to the other half of the mice by the same way; this latter half of the group of mice was therefore used as the control series. The mice were randomized in each experimental series.
Animals surviving for longer than 45 days were considered to be cured.

mouse P 388 leukemia = test: P 388 leukemia in mice, same procedure, inoculum of 10^5 cells; assay type: in vivo; conditions: same doses, compared with L1210 leukemia
Description: The effect the compounds of the invention have on mouse L 1210 or P 388 leukemias was used to test the antitumor activity of said compounds.
B-The same procedure was used as in A, but after a tumoral inoculum of 10^5 P 388 leukemia cells had been injected to the mice. The therapeutic activity of the 9-hydroxy 2-methyl-ellipticinium was similar on this mouse P 388 leukemia to that obtained on mouse L1210 leukemia, using the same doses.

DNA = DNA affinity; assay type: binding
L1210 cells = test: Rate of L1210 cells multiplication in vitro; assay type: cell-based, mouse

**Q.** Which “Effectiveness in Hodgkin's disease” value (Hodgkin's disease) does the source give for `COc1ccc2[nH]c3c(C)c4ccncc4c(C)c3c2c1` [9-methoxy-ellipticine lactate] here?
**A.** ineffective

**Q.** What about the “Effectiveness in acute myeloblastic leukemia” value [1] of the same compound?
**A.** effective

**Q.** And the Immunosuppressive action ([2]; administered after the antigen)?
**A.** has an immunosuppressive action

**Q.** What about the Immunosuppressive action ([2]; administered to humans) of the same compound?
**A.** does not reveal such an activity

**Q.** What about the “Oncostatic action in BP 8 tumors” value (BP 8 tumors) of the same compound?
**A.** oncostatic action

**Q.** What about the “Effectiveness in acute lymphoblastic leukemia” value [3] of the same compound?
**A.** ineffective

**Q.** And the “Oncostatic action in mouse L 1210 leukemia” value (mouse L 1210 leukemia [4])?
**A.** oncostatic action

**Q.** For `Cc1c2cc[n+](C)cc2c(C)c2c1[nH]c1ccc(O)cc12` [9-hydroxy 2-methyl ellipticinium acetate, 9-hydroxy-2-methyl-ellipticinium acetate], which Elimination [5] is on record?
**A.** elimination through feces is reduced

**Q.** What about the “Organ distribution (autoradiography)” value ([5]; listed as methyl derivative) of the same compound?
**A.** devoid of any ability to concentrate in lungs and pancreas; also recorded: capacity to concentrate in the intestinal walls and in the thyroid

**Q.** And the “Activity on human tumors” value ([6]; human, in vivo)?
**A.** active on some human tumors

**Q.** And the Toxic side effects ([6]; phase I trial)?
**A.** No major toxic side effects

**Q.** And the “Patients with subjective or objective improvements” value ([6]; weekly 50 to 100 mg per m2 intravenously over 30 minutes)?
**A.** Eight of the first 18 patients

**Q.** What about the Metabolism [7] of the same compound?
**A.** excreted with no major modification

**Q.** What about the “Toxicity in mice relative to 9--OH--E, on a weight basis” value [8] of the same compound?
**A.** about 10 times

**Q.** What about the “LDo (highest non lethal dose / sublethal dose) for mice” value ([8]; route not given) of the same compound?
**A.** 5 mg/kg

**Q.** And the “Doses smaller than the doses of 9-hydroxy-ellipticine necessary to obtain a comparable result” value (mouse L 1210 leukemia [9]; L1210 leukemia)?
**A.** about 10 times

**Q.** What about the ED (ILS 25%) (mouse L 1210 leukemia [9]; Mus musculus, L1210, ip, mice, read-out: L 1210 cells: in vivo dose to reach ILS 25%) of the same compound?
**A.** 1 mg/kg

**Q.** And the “Cured mouse surviving more than 45 days” value (mouse L 1210 leukemia [9]; footnote of table IV, I.P., 10^5 L1210 cells)?
**A.** 1 out of 20 mice

**Q.** And the “Efficiency on leukemic mice (ILS) relative to 9--OH--E, on a weight basis” value (mouse L 1210 leukemia [9]; mouse, in vivo)?
**A.** about 10 times

**Q.** And the “Therapeutic activity on mouse P 388 leukemia” value (mouse P 388 leukemia)?
**A.** similar

**Q.** And the Kd (DNA)?
**A.** 0.769 µM

**Q.** What about the “Activity on the rate of growth of L1210 cells in vitro relative to 9--OH--E” value (L1210 cells) of the same compound?
**A.** four times less active
